No end group written: not given here.
Legend:
scurfin = target: T1, scurfin (Homo sapiens, UniProt Q9BZS1); assay: Surface plasmon resonance (SPR) analysis of peptide binding to immobilized scurfin; details: peptide 10 μM, scurfin immobilized on CM5 chip, compared with irrelevant control peptide (SEQ ID NO: 6)
T1 construct: GST (glutathione-S-transferase); made in house; host or cells: Escherichia coli BL21
T1 sequence (Q9BZS1 1-431): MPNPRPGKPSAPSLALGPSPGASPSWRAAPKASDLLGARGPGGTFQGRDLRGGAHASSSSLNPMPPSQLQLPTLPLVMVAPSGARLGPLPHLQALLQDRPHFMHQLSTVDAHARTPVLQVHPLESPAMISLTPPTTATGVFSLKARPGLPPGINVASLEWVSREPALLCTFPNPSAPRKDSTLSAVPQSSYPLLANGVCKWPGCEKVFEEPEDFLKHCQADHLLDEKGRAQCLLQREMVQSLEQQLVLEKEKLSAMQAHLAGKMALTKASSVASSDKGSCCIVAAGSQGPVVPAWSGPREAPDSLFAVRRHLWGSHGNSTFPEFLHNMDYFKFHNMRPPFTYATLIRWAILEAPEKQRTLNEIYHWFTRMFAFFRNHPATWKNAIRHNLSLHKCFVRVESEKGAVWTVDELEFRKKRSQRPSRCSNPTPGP
Excerpt: The capacity of peptide P60 (SEQ ID NO: 1) to bind to scurfin was verified by means of the biomolecular interaction surface plasmon resonance (SPR) using the Biosensor BIAcore X (BIAcore, AB, Uppsala, Sweden). Scurfin, produced in E. coli and purified by affinity using GSTrap columns (Amersham, Pharmacia), was covalently immobilized on the surface of the flow cell 2 (FC2) of a CM5 chip (Sensor Chip CM Ref 116Br-1000-14, BIAcore, General Electrics), as described in De Crescenzo et al. (JBC 2001, Vol 276; 29632-29643). Flow cell 1 (FC1), on the surface of which scurfin is not immobilized, was used as a reference reflow cell. The solutions of each peptide (10 μM) were injected three times in a 10 mM Hepes buffer, 150 mM NaCl, pH 7.4 at a flow of 30 μl/min. The binding curves were processed by means of subtracting the response in FC1 from that obtained in FC2. The response in equilibrium was compared between peptide P60 (SEQ ID NO: 1) and an irrelevant control peptide of the same size (length), specifically, the peptide the amino acid sequence of which is shown in SEQ ID NO: 6, corresponding to amino acids 123-137 of the human CD81 receptor. Each response was multiplied by a mass correction factor: MW(P60)/MW(P), wherein MW(P60) is the molecular weight of peptide P60 (SEQ ID NO: 1) and MW(P) is that of the control peptide.
For the purpose of evaluating the importance of the amino acids placed at the amino-terminal and carboxyl-terminal ends of peptide P60 (SEQ ID NO: 1), truncated forms of said peptide P60 (SEQ ID NO: 1) were chemically synthesized as has been mentioned above, and the capacity of said truncated forms to bind to scurfin was assayed by means of SPR, according to the protocol previously described in section 1.3.
Likewise, the capacity of said peptides (SEQ ID NO: 2, SEQ ID NO: 3 and SEQ ID NO: 4) to bind to scurfin was assayed by means of SPR in the previously mentioned conditions.

CT26 colon cancer line = assay: CT26 colon cancer tumor model, antitumor vaccination with peptide AH1; assay type: in vivo, BALB/c mice; details: for protection from tumor: n=11
Excerpt: The tumor model used for this assay has been a model based on the CT26 colon cancer line, described in a previous work of the laboratory of the inventors (Casares et al, 2001. Eur J Immunol 31:1780-9; Casares et al., 2003. J Immunol 171:5931-9), since the inventors had previously shown that, in this model, Treg lymphocytes have an immunosuppressive effect favoring tumor growth (Casares et al., 2003, mentioned above).
The synthetic peptide (SEQ ID NO: 8) was used as a vaccine antigen, which peptide contains a cytotoxic T determinant for the CT26 line (Huang, A. Y. et al, Proc Natl Acad Sci USA, 1996. 93:9730-9735) and the immunization of which delays the tumor growth to a certain extent, without eliminating it due to the presence of Treg lymphocytes (Casares et al., 2003, mentioned above).
Briefly, groups of 6 six-week old BALB/c mice (Charles River) were immunized with peptide AH1 (SEQ ID NO: 8) as described in Casares et al., 2001, mentioned above, in the presence or absence of peptide P60 (SEQ ID NO: 1). Ten days after the immunization, the mice were subcutaneously injected with 5×10^5 CT26 cells, and the tumor evolution was measured.

[1] = system: Karpas 299 human cell line; assay: Mixed lymphocyte reaction (MLR) of PBMCs from 2 donors with Karpas 299 cells, IFN-γ ELISA; assay type: cell-based
Procedure: After verifying and confirming its profile, in vitro assays were carried out using the Karpas 299 human cell line (ACC-31, DSMZ, Germany), derived from a human lymphoma with a regulatory T cell [Treg lymphocytes] profile (Wolke et al Int J Mol. Med. 2006 February; 17(2):275-8), the need to isolate CD4+CD25+ cells is thus prevented.
To evaluate the effect of peptide P60 (SEQ ID NO: 1) on the immunosuppressive activity of the Karpas 299 cell line, a “mixed lymphocyte reaction” (MLR) assay was carried out using peripheral blood mononuclear cells (PBMCs) from 2 donors in the presence or absence of the Karpas 299 cell line. This assay (MLR) is based on co-culturing lymphocytes of a different origin, with different histocompatibilities, which will recognize one another as foreign. This reaction makes lymphocytes proliferate, secreting cytokines. For this assay, 100,000 cells of each donor (positive MLR control) were cultured in a 96-well plate, alone or in the presence of 10,000 cells of the Karpas 299 cell line.
After 48 hours, the supernatants were extracted to measure interferon-gamma (IFN-γ) by means of a commercial ELISA (Ref 555138, Pharmingen, San Diego, Calif., United States). […] In this assay of inhibition of the MLR due to the presence of the Karpas 299 cell line, the capacity of peptide P60 (SEQ ID NO: 1) to restore the production of IFN-γ due to the MLR was analyzed.

murine Treg lymphocytes [2] = assay: Murine MLR (BALB/c effector lymphocytes with C57BL/6 dendritic cells) with BALB/c Treg lymphocytes, tritiated thymidine incorporation; assay type: cell-based, mouse; details: 100 μM
Procedure: Secondly, mixed lymphocyte reaction (MLR) assays were carried out. The effector lymphocytes isolated from BALB/c mice (10^5 cells/well) were co-cultured with purified dendritic cells from C57BL/6 mice (Charles River), in the presence or absence of BALB/c Treg lymphocytes and in the presence or absence of peptide P60 (SEQ ID NO: 1) (100 μM). The measurement of the cell proliferation was carreid out by means of a conventional tritiated thymidine incorporation assay as has been previously described.

murine Treg lymphocytes [3] = assay: Co-culture of OT-1 transgenic mouse effector lymphocytes with dendritic cells, SIINFEKL antigen and Treg lymphocytes, IFN-γ ELISA; assay type: cell-based; details: 100 μM, SIINFEKL 10 μg/ml, OT-1 effector lymphocytes
Procedure: Thirdly, the effect of peptide P60 (SEQ ID NO: 1) was measured in an assay based on co-culturing splenocytes from OT-1 transgenic mice (the T lymphocytes of which have a specific T cell receptor for the peptide SIINFEKL (SEQ ID NO: 7) of ovalbumin, which were kindly provided by Dr Melero, CIMA Pamplona) with Treg lymphocytes in the presence of antigen (SEQ ID NO: 7) and in the presence or absence of Treg lymphocytes. […] The effector lymphocytes isolated from OT-1 transgenic mice (10^5 cells/well) were co-cultured with dendritic cells from C57BL/6 mice and the peptide SIINFEKL (SEQ ID NO: 7) (10 μg/ml), in the presence or absence of 2×10^4 BALB/cregulatory T cells and in the presence or absence of peptide P60 (SEQ ID NO: 1) (100 μM).

human Treg lymphocytes [4] = assay: MLR of PBMCs from 2 donors with human Treg lymphocytes, tritiated thymidine incorporation; assay type: cell-based; details: 100 μM, 3 days of culture
Procedure: To carry out the assay based on a mixed lymphocyte reaction (MLR), such as that shown in Example 2, peripheral blood mononuclear cells (PBMCs) from 2 donors were mixed together with CD4+CD25+ Treg cells (Treg lymphocytes) purified from one of them, by means of using a commercial kit (Ref 130091072, Miltenyi Biotec, Bergisch Gladbach, Germany) following the instructions of the manufacturer. After the purification, the cells were analyzed by flow cytometry, a purity of approximately 90% being obtained in all the assays. This MLR assay was carried out incubating 10^5 PBMC cells from each donor and 2×10^4 Treg lymphocytes in the presence or absence of peptide P60 (SEQ ID NO: 1), for the purpose of assaying its capacity to block the inhibitory effect of human Treg lymphocytes. After 3 days of culture, 0.5 μCi/well of tritiated thymidine (Amersham, Pharmacia) and after 16 hours, the plates were harvested using a harvester (Filtermate 96 harvester; Packard Instrument, Meriden, Conn.) and the radioactivity incorporated to the cell DNA was counted (as a measurement of the cell proliferation) by means of a scintillation counter (Topcount; Packard Instrument).

murine Treg lymphocytes [5] = assay: Activation of BALB/c mouse splenocytes with anti-CD3 antibodies with murine Treg lymphocytes, IFN-γ; assay type: cell-based; details: 100 μM
Procedure: Firstly, assays of activation of BALB/c mouse splenocytes (Charles River) in the presence of anti-CD3 antibodies (Ref 553057, BD Biosciences) were carried out.

[6] = system: inhibition of the activation of transcription factor NF-κB by scurfin; assay: NF-κB luciferase reporter in 293 cells transfected with pcDNA-Foxp3; assay type: cell-based; details: 100 μM, 24 hours
Excerpt: It has been described that the presence of scurfin can inhibit the activation of the transcription factor NF-kB in 293 cells (Betelli et al, Proc Natl Acad Sci USA. 2005 102:5138-43). Based on this work, the effect of the addition of peptide P60 (SEQ ID NO: 1) to a culture of 293 cells transfected with a plasmid expressing the foxp3 gene, kindly provided by Dr Oukka and previously described (Betelli et al, Proc Natl Acad Sci USA. 2005 102:5138-43) and to a culture of 293 cells transfected with a control plasmid together with a plasmid expressing luciferase under a promoter inducible by NF-κB (Ref 631904, pNF-kB-Luc, Clontech) has been studied. The 293 cells were transfected by means of using lipofectamine with plasmid pNF-kB-Luc expressing luciferase under a promotor inducible by transcription factor NF-kB, in the presence or absence of plasmid pcDNA, pcDNA-Foxp3 and peptide P60 (SEQ ID NO: 1) (100 μM). After 24 hours of culture, the cells were harvested and the luciferase activity in the cell extracts was measured by means of using a suitable kit (Promega, Maddison, USA) and the luminometer (Orion Microplate luminometer, Berthold detection systems, Germany).

human Treg lymphocytes [7] = assay: IFN-γ production by human CD4 effector T lymphocytes stimulated with anti-CD3/CD28 microspheres with human Treg lymphocytes; assay type: cell-based; details: 100 μM, anti-CD3/CD28 stimulus, 48 hours, ELISA
Procedure: This assay is based on the measurement of the production of IFN-γ in a culture of 10^5 human CD4 effector T lymphocytes cultured with microspheres containing anti-CD3 and anti-CD28 antibodies adhered to their surface (Dynabeads® CD3/CD28; Ref 111.31, Dynal), in the presence or absence of 2×10^4 human Treg lymphocytes (purified as indicated above). This assay was carried out in the presence or absence of peptide P60 (SEQ ID NO: 1) to assess its inhibitory effect of Treg lymphocytes. After 48 hours of culture, the presence of IFN-γ in the culture supernatants was measured by means of a commercial ELISA (Ref 555138, Pharmingen).

Substance: T(2-15): truncated form of P60, amino acids 2-15 of P60 (DFQSFRKMWPFFAM)
- capacity to bind to scurfin (SPR signal) (scurfin): inhibits the capacity of the peptide to bind to scurfin

Substance: RDFQSFRKMWPFF [T(1-13), truncated form of P60, amino acids 1-13 of P60]
- capacity to bind to scurfin (SPR signal) (scurfin): does not destroy the capacity of the peptide to bind to scurfin

Substance: AH1: synthetic peptide used as vaccine antigen, contains a cytotoxic T determinant for the CT26 line (SPSYVYHQF) [reference compound]
- protection from tumor (CT26 colon cancer line; mice immunized with AH1 alone): 0%

Substance: RDFQSFRKMWPFFAM [P60]
- restoration of the production of IFN-γ due to the MLR inhibited by Karpas 299 cells ([1]; 100 μM, 48 hours, ELISA): capable of partly recovering the production of IFN-γ
- inhibitory activity on the immunosuppressive action of Treg cells among the 25 peptides selected ([1]; several in vitro assays (Example 2)): highest inhibitory activity
- inhibition of the immunosuppressive effect of Treg lymphocytes on proliferation of effector cells in response to an MLR (murine Treg lymphocytes [2]): capable of inhibiting the immunosuppressive effect of Treg lymphocytes on the proliferation of effector cells
- inhibition of the immunosuppressive effect of Treg lymphocytes on production of IFN-γ by antigen-specific effector cells (murine Treg lymphocytes [3]): capable of inhibiting the immunosuppressive effect of Treg lymphocytes on the production of IFN-γ
- restoration of the MLR (cell proliferation) inhibited by human Treg lymphocytes (human Treg lymphocytes [4]): capable of partly restoring the MLR
- capacity to bind to scurfin (SPR signal) (scurfin): positive signal
- inhibition of the immunosuppressive effect of Treg lymphocytes on production of IFN-γ in response to anti-CD3 (murine Treg lymphocytes [5]): capable of inhibiting the immunosuppressive effect of Treg lymphocytes on the production of IFN-γ
- protection from tumor (CT26 colon cancer line; mice immunized with peptide AH1 and treated with P60 50 nm/mouse i.p. days 0, 2, 4, 6, 8, 10): 82%
- mice that developed a palpable tumor (CT26 colon cancer line; of the 11 mice immunized with peptide AH1 and treated with P60): 2
- protection from tumor (CT26 colon cancer line; peptide P60 alone, non-immunized mice): 10%
- expression of luciferase (NF-κB reporter) inhibited by scurfin [6]: restores the expression of luciferase
- restoration of the production of IFN-γ inhibited by human Treg lymphocytes (human Treg lymphocytes [7]): partly restoring the production of IFN-γ

Substance: RDFQSFRKMWPFFA [T(1-14), truncated form of P60, amino acids 1-14 of P60]
- capacity to bind to scurfin (SPR signal) (scurfin): does not destroy the capacity of the peptide to bind to scurfin
